The results in this text go back to patent US20090274674A1, “Heterocyclic Oxime Compounds, Process for Their Preparation and Pharmaceutical Compositions Containing Them” (LES LABORATOIRES SERVIER, priority 2005, published 2009).

The subject of one series is ob/ob mouse. Nature of the series: Antidiabetic and hypolipaemic effect in the ob/ob mouse. It counts as in vivo. The settings on record: male ob/ob mouse, 3 mg/kg oral once per day for four days, measured 24 hours after the final administration. An excerpt:
Mutations in laboratory animals and also different sensitivities to dietary regimens have allowed the development of animal models having non-insulin-dependent diabetes and hyperlipidaemia associated with obesity and with resistance to insulin. Genetic mice models (ob/ob) (Diabetes, 1982, 31 (1), 1-6) and Zucker (fa/fa) rats have been developed by various laboratories in order to understand the physiopathology of those diseases and test the effectiveness of new antidiabetic compounds (Diabetes, 1983, 32, 830-838).
Antidiabetic and Hypolipaemic Effect in the ob/ob Mouse
The 10-week-old male ob/ob mouse (Harlan) is used for the in vivo tests. The animals are kept in a light-darkness cycle of 12 hours at 25° C. This mouse has a basal hyperglycaemia of 2 g/l. The animals are randomly selected with regard to their glycaemia to form groups of eight. The compounds tested by the oral route are dissolved in a mixture of hydroxyethyl cellulose (HEC 1%) to be administered at 3 mg/kg in a volume of 10 ml/kg once per day for four days. The control group receives the solvents under the same conditions as the treated groups. The activity of the products is evaluated by measuring glycaemia, triglyceridaemia and insulinaemia 24 hours after the final administration and by measuring body weight daily.

As to `CCOC(Cc1ccc(OCCn2ccc3cc(C(=NOC)c4ccccc4)cnc32)cc1)C(=O)OC` (stereo not drawn) [Example 11, Methyl 2-ethoxy-3-[4-(2-{5-[(methoxyimino)(phenyl)methyl]-1H-pyrrolo[2,3-b]pyridin-1-yl}ethoxy)phenyl]propanoate], the melting point amounted to 145 °C.

On to `CON=C(c1ccccc1)c1cnc2c(ccn2CCOc2ccc(CC(OCC(F)(F)F)C(=O)O)cc2)c1` (stereo not drawn) [Example 14, 3-[4-(2-{5-[(Methoxyimino)(phenyl)methyl]-1H-pyrrolo[2,3-b]pyridin-1-yl}ethoxy)phenyl]-2-(2,2,2-trifluoroethoxy)propanoic acid], for which the melting point was 182 °C (dec.).

Compound `CO/N=C(/c1ccccc1)c1cnc2c(ccn2CCOc2ccc(CC(OCC(F)(F)F)C(=O)O)cc2)c1Cl` (stereo not drawn) [Example 16, 3-[4-(2-{4-Chloro-5-[(Z)-(methoxyimino)(phenyl)methyl]-1H-pyrrolo[2,3-b]pyridin-1-yl}ethoxy)phenyl]-2-(2,2,2-trifluoro-ethoxy)propanoic acid] registered a melting point of 186 °C.

Regarding `CON=C(c1ccccc1)c1ccc2ccn(CCOc3ccc(C[C@H](OCC(F)(F)F)C(=O)O)cc3)c2n1` [Example 32, (2S)-3-[4-(2-{6-[(Methoxyimino) (phenyl)methyl]-1H-pyrrolo[2,3-b]pyridin-1-yl}ethoxy)phenyl]-2-(2,2,2-trifluoroethoxy)propanoic acid], in the series on ob/ob mouse, the “reduction in glycaemia compared with the control” value is on record as 43%, the “reduction in insulinaemia compared with the control group” value amounted to 23% and the “reduction in triglyceridaemia compared with the control group” value worked out at 37%.
